Measured values taken from ChEMBL document CHEMBL1142267, “Optimization of alpha-ketooxazole inhibitors of fatty acid amide hydrolase” (J Med Chem, 2008).
One block for each compound: values may come before it.

Columns and labels:
[1] = biological target: T1, Fatty-acid amide hydrolase 1 (Rattus norvegicus, UniProt P97612); experiment: Inhibition of rat recombinant FAAH expressed in Escherichia coli
T1 sequence (P97612 whole entry): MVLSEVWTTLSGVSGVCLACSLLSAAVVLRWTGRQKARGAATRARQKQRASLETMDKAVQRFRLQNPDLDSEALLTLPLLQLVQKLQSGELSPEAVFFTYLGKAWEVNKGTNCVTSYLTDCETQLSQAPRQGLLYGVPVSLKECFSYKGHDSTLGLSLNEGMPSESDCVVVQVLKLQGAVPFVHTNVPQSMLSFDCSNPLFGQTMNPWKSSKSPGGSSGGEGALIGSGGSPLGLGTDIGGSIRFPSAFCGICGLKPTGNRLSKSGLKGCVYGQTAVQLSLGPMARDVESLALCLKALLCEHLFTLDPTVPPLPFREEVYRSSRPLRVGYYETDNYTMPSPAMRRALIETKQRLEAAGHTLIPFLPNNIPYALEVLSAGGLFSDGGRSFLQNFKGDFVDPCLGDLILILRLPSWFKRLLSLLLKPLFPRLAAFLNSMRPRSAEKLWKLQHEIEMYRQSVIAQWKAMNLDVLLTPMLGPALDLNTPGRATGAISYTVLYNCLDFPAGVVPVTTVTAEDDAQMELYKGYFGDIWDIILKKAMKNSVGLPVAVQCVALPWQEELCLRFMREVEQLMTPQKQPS

Liver carboxylesterase 1 = biological target: T2, Liver carboxylesterase 1 (Homo sapiens, UniProt P23141)
T2 sequence (P23141 whole entry): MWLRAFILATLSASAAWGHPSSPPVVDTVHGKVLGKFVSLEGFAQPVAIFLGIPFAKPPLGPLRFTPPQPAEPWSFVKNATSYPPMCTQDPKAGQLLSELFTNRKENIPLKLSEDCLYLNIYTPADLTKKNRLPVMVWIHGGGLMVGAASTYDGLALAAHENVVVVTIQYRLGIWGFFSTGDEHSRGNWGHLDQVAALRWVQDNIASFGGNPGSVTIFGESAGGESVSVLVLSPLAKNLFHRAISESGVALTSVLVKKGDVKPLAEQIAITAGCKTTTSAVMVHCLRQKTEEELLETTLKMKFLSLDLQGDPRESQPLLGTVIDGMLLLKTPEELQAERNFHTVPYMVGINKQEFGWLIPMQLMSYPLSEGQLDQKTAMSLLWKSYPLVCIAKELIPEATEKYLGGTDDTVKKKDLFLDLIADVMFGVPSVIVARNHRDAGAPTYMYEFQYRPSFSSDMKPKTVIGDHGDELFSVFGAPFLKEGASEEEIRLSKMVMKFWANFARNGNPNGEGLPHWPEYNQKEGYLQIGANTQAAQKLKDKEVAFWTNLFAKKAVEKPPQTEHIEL

[2] = Selectivity for rat recombinant FAAH over KIAA1363
[3] = Selectivity for rat recombinant FAAH over TGH
[4] = biological target: T3, Neutral cholesterol ester hydrolase 1 (Homo sapiens, UniProt Q6PIU2); experiment: Inhibition of KIAA1363
T3 sequence (Q6PIU2 whole entry): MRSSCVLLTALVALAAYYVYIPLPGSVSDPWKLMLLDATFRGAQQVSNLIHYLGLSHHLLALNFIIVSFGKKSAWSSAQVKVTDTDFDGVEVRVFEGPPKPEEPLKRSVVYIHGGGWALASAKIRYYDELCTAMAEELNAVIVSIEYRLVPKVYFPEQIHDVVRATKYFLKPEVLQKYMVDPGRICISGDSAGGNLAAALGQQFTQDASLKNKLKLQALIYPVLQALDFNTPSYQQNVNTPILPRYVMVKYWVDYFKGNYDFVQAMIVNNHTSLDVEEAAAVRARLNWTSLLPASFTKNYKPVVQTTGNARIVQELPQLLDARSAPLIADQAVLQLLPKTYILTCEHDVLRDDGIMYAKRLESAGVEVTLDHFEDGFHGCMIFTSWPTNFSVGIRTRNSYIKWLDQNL

Ki [1]: 2.9 nM
Compound: N#Cc1cccc(-c2cnc(C(=O)CCc3ccc(-c4ccccc4)cc3)o2)n1

Ki [1]: 10 nM
Compound: O=C(CCc1ccc(Oc2ccccc2)cc1)c1ncc(I)o1

IC50 [1]: 2 nM | IC50 (Liver carboxylesterase 1): 2000 nM | Ratio IC50 [2]: > 50000 | Ratio IC50 [3]: 1000
Compound: O=C(O)c1cnc(C(=O)CCCCCCc2ccccc2)o1

Ki [1]: 130 nM
Compound: O=C(O)c1cccc(-c2cnc(C(=O)CCc3ccc(-c4ccc(CN5CCCC5)cc4)cc3)o2)n1

Ki [1]: 1100 nM
Compound: COC(=O)c1ccc(-c2cnc(C(O)CCc3ccc(-c4ccccc4)cc3)o2)nc1 (centres undefined)

Ki [1]: 50000 nM
Compound: COC(=O)c1ccc(-c2cnc(CCCc3ccc(-c4ccccc4)cc3)o2)nc1

Ki [1]: 4500 nM
Compound: COC(=O)c1cccc(-c2cnc(C(=O)CCc3ccc(OC4CCNCC4)cc3)o2)n1

Ki [1]: 0.56 nM
Compound: N#Cc1cccc(-c2cnc(C(=O)CCc3ccc(COc4ccccc4)cc3)o2)n1

Ki [1]: 3.6 nM
Compound: CNC(=O)c1cnc(C(=O)CCc2ccc(COc3ccccc3)cc2)o1

Ki [1]: 4.5 nM
Compound: NC(=O)c1cnc(C(=O)CCc2ccc(COc3ccccc3)cc2)o1

Ki [1]: 25 nM
Compound: O=C(CCc1ccc(-c2ccc(CN3CCCCC3)cc2)cc1)c1ncco1

Ki [1]: 11000 nM
Compound: O=C(O)c1cccc(-c2cnc(C(=O)CCc3ccc(OC4CCNCC4)cc3)o2)n1

IC50 [1]: 2500 nM
Compound: O=C(CCCCCCc1ccccc1)c1ncco1

Ki [1]: 1200 nM
Compound: CN1CCN(Cc2ccc(-c3ccc(CCC(=O)c4ncc(-c5cccc(C(=O)O)n5)o4)cc3)cc2)CC1

Ki [1]: 6.6 nM
Compound: NC(=O)c1cnc(C(=O)CCc2ccc(Oc3ccccc3)cc2)o1

IC50 [1]: 500 nM | IC50 (Liver carboxylesterase 1): > 100000 nM | IC50 [4]: > 100000 nM | Ratio IC50 [2]: > 200 | Ratio IC50 [3]: > 200
Compound: O=C(CCCCCCc1ccccc1)c1ncc(-c2cccc(-c3nnn[nH]3)n2)o1

Ki [1]: 5.4 nM
Compound: CN(C)C(=O)c1cnc(C(=O)CCc2ccc(Oc3ccccc3)cc2)o1

IC50 [1]: 20 nM | Ki [1]: 10 nM | IC50 (Liver carboxylesterase 1): 17000 nM | IC50 [4]: > 100000 nM | Ratio IC50 [2]: > 5000 | Ratio IC50 [3]: 850
Compound: O=C(O)c1cnc(C(=O)CCc2ccc(-c3ccccc3)cc2)o1

IC50 [1]: 6 nM | IC50 (Liver carboxylesterase 1): > 100000 nM | IC50 [4]: > 100000 nM | Ratio IC50 [2]: > 17000 | Ratio IC50 [3]: > 17000
Compound: O=C(O)c1cccc(-c2cnc(C(=O)CCc3ccc(-c4ccccc4)cc3)o2)n1

IC50 [1]: 180 nM | IC50 (Liver carboxylesterase 1): 90000 nM | IC50 [4]: > 100000 nM | Ratio IC50 [2]: > 550 | Ratio IC50 [3]: 500
Compound: O=C(CCc1ccc(COc2ccccc2)cc1)c1ncc(-c2cccc(-c3nnn[nH]3)n2)o1

Ki [1]: 120 nM
Compound: CC(C)(C)OC(=O)N1CCC(Oc2ccc(CCC(=O)c3ncc(-c4cccc(C(=O)O)n4)o3)cc2)CC1

Ki [1]: 20000 nM
Compound: O=C(O)c1ccc(-c2cnc(CCCc3ccc(-c4ccccc4)cc3)o2)nc1

Ki [1]: 7000 nM
Compound: COC(=O)c1cccc(-c2cnc(CCCc3ccc(-c4ccccc4)cc3)o2)n1

Ki [1]: > 1000 nM
Compound: NC(=O)c1ccc(-c2cnc(C(O)CCc3ccc(-c4ccccc4)cc3)o2)nc1 (centres undefined)

Ki [1]: 3.5 nM
Compound: NC(=O)c1cnc(C(=O)CCc2ccc(-c3ccccc3)cc2)o1

Ki [1]: 1100 nM
Compound: O=C(O)c1cccc(-c2cnc(C(O)CCc3ccc(-c4ccccc4)cc3)o2)n1 (centres undefined)

Ki [1]: 20000 nM
Compound: NC(=O)c1cccc(-c2cnc(C(O)CCc3ccc(-c4ccccc4)cc3)o2)n1 (centres undefined)

Ki [1]: 4 nM
Compound: O=C(CCc1ccc(COc2ccccc2)cc1)c1ncc(I)o1

Ki [1]: 30000 nM
Compound: NC(=O)c1ccc(-c2cnc(CCCc3ccc(-c4ccccc4)cc3)o2)nc1

IC50 [1]: 40 nM | IC50 (Liver carboxylesterase 1): 26000 nM | IC50 [4]: > 100000 nM | Ratio IC50 [2]: > 2500 | Ratio IC50 [3]: 650
Compound: O=C(O)c1cccc(-c2cnc(C(=O)CCc3ccc(COc4ccccc4)cc3)o2)n1

Ki [1]: 1.7 nM
Compound: COC(=O)c1cnc(C(=O)CCc2ccc(Oc3ccccc3)cc2)o1

IC50 [1]: 2 nM | IC50 (Liver carboxylesterase 1): 2000 nM | IC50 [4]: > 100000 nM | Ratio IC50 [2]: > 50000 | Ratio IC50 [3]: 1000
Compound: O=C(CCc1ccc(COc2ccccc2)cc1)c1ncc(-c2ccccn2)o1

IC50 [1]: 2 nM | IC50 (Liver carboxylesterase 1): 200 nM | IC50 [4]: > 100000 nM
Compound: O=C(CCc1ccc(Oc2ccccc2)cc1)c1ncc(-c2ccccn2)o1

Ki [1]: 3 nM
Compound: CN(C)C(=O)c1cnc(C(=O)CCc2ccc(-c3ccccc3)cc2)o1

Ki [1]: 6.7 nM
Compound: CN(C)C(=O)c1cnc(C(=O)CCc2ccc(COc3ccccc3)cc2)o1

IC50 [1]: 50 nM | Ki [1]: 22 nM | IC50 (Liver carboxylesterase 1): 37000 nM | IC50 [4]: > 100000 nM | Ratio IC50 [2]: > 2000 | Ratio IC50 [3]: 740
Compound: O=C(O)c1cnc(C(=O)CCc2ccc(COc3ccccc3)cc2)o1

Ki [1]: 4 nM
Compound: O=C(CCc1ccc(-c2ccccc2)cc1)c1ncc(I)o1

IC50 [1]: 20 nM | IC50 (Liver carboxylesterase 1): > 100000 nM | IC50 [4]: > 100000 nM | Ratio IC50 [2]: > 5000 | Ratio IC50 [3]: > 5000
Compound: O=C(O)c1cccc(-c2cnc(C(=O)CCc3ccc(Oc4ccccc4)cc3)o2)n1

Ki [1]: 3 nM
Compound: CSc1cnc(C(=O)CCc2ccc(-c3ccccc3)cc2)o1

Ki [1]: 11 nM
Compound: CNC(=O)c1cnc(C(=O)CCc2ccc(Oc3ccccc3)cc2)o1

Ki [1]: 1.5 nM
Compound: COC(=O)c1cnc(C(=O)CCc2ccc(-c3ccccc3)cc2)o1

IC50 [1]: 1 nM | IC50 (Liver carboxylesterase 1): 26 nM | IC50 [4]: 64000 nM | Ratio IC50 [2]: 64000 | Selectivity ratio [2]: > 1000 | Ratio IC50 [3]: 26
Compound: N#Cc1cnc(C(=O)CCc2ccc(-c3ccccc3)cc2)o1

Ki [1]: 1.2 nM
Compound: CS(=O)(=O)c1cnc(C(=O)CCc2ccc(-c3ccccc3)cc2)o1

IC50 [1]: 80 nM | Ki [1]: 41 nM | IC50 (Liver carboxylesterase 1): 2400 nM | IC50 [4]: > 100000 nM | Ratio IC50 [2]: > 1250 | Ratio IC50 [3]: 30
Compound: O=C(O)c1cnc(C(=O)CCc2ccc(Oc3ccccc3)cc2)o1

Ki [1]: 8 nM
Compound: O=C(CCc1ccc(-c2ccccc2)cc1)c1ncc(C(=O)C(F)(F)F)o1

IC50 [1]: 100 nM | Ki [1]: 25 nM | IC50 (Liver carboxylesterase 1): 7000 nM | IC50 [4]: > 100000 nM | Ratio IC50 [2]: > 1000 | Ratio IC50 [3]: 70
Compound: O=C(CCc1ccc(-c2ccccc2)cc1)c1ncc(-c2cccc(-c3nnn[nH]3)n2)o1

Ki [1]: 4000 nM
Compound: NC(=O)c1cccc(-c2cnc(CCCc3ccc(-c4ccccc4)cc3)o2)n1

Ki [1]: 1.6 nM
Compound: COC(=O)c1cnc(C(=O)CCc2ccc(COc3ccccc3)cc2)o1

Ki [1]: 1.5 nM
Compound: COC(=O)c1cc(-c2cnc(C(=O)CCc3ccc(-c4ccccc4)cc3)o2)ccn1

IC50 (Liver carboxylesterase 1): 1200 nM | IC50 [4]: > 100000 nM
Compound: O=C(CCc1ccc(-c2ccccc2)cc1)c1ncc(-c2ccccn2)o1

Compound: O=C(O)c1cccc(-c2cnc(C(=O)CCCCCCc3ccccc3)o2)n1
IC50 [1]: 100 nM | Ratio IC50 [2]: > 1000 | Ratio IC50 [3]: > 1000

Ki [1]: 32 nM
Compound: COC(=O)c1cccc(-c2cnc(C(=O)CCc3ccc(OC4CCN(C(=O)OC(C)(C)C)CC4)cc3)o2)n1

Ki [1]: 10000 nM
Compound: O=C(O)c1cccc(-c2cnc(CCCc3ccc(-c4ccccc4)cc3)o2)n1

Ki [1]: 1.3 nM
Compound: NC(=O)c1ccc(-c2cnc(C(=O)CCc3ccc(-c4ccccc4)cc3)o2)nc1

Ki [1]: 10000 nM
Compound: O=C(O)c1ccc(-c2cnc(C(O)CCc3ccc(-c4ccccc4)cc3)o2)nc1 (centres undefined)

Ki [1]: 9000 nM
Compound: COC(=O)c1cccc(-c2cnc(C(O)CCc3ccc(-c4ccccc4)cc3)o2)n1 (centres undefined)

Ki [1]: 0.7 nM
Compound: O=C(CCc1ccc(-c2ccccc2)cc1)c1ncc(C(F)(F)F)o1
